Laboratory results taken from ChEMBL document CHEMBL3217740, “Novel selective inhibitors of neutral endopeptidase: discovery by screening and hit-to-lead optimisation” (Medchemcomm, 2012).
Values after ≈ are worked out from the molar mass of the structure shown.

How the values were obtained:
[1] = Half life in rat plasma at 10 uM by LC-MS/MS; format: ADME, cell-free
[2] = Solubility of the compound in PBS buffer at pH 7.4 after 24 hrs by LC-MS/MS analysis; format: physicochemical
Neprilysin = Neprilysin (Homo sapiens, UniProt P08473); assay: Inhibition of human NEP using N-Dansyl-D-Ala-Gly-p-nitro-Phe-Gly as substrate preincubated for 10 mins followed by substrate addition measured after 2 hrs by spectrophotometric analysis
Sequence of Neprilysin (P08473 whole entry): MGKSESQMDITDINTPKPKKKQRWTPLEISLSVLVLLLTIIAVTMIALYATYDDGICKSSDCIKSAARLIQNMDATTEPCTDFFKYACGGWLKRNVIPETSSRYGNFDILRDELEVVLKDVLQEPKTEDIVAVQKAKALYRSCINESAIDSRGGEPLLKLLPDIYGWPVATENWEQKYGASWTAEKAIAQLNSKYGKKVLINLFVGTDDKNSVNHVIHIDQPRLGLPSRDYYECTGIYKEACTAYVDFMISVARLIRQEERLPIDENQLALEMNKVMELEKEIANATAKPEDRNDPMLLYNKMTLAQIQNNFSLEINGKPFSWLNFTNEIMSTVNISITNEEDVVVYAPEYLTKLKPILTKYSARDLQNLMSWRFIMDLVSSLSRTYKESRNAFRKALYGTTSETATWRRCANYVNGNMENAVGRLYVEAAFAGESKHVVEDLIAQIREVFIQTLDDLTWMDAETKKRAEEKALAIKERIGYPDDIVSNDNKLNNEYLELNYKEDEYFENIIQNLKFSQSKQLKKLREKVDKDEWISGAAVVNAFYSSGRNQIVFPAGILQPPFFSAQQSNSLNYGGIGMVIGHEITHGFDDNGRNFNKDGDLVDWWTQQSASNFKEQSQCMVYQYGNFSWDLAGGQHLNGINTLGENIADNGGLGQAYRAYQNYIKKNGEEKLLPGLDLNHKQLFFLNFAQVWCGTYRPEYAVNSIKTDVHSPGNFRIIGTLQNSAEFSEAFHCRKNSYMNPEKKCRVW

[3] = Stability of the compound assessed as GSH adduct formation by LC-MS analysis; format: ADME
[4] = 1-octanol-PBS distribution coefficient, Log D of the compound at pH 7.4 after 2 hrs by LC-MS analysis; format: physicochemical
[5] = target: Angiotensin-converting enzyme (Homo sapiens, UniProt P12821); assay: Inhibition of human ACE-1 using Abz-Gly-p-nitro-Phe-Pro-OH as substrate preincubated for 10 mins followed by substrate addition measured after 17 hrs by spectrophotometric analysis
Sequence of Angiotensin-converting enzyme (P12821 whole entry): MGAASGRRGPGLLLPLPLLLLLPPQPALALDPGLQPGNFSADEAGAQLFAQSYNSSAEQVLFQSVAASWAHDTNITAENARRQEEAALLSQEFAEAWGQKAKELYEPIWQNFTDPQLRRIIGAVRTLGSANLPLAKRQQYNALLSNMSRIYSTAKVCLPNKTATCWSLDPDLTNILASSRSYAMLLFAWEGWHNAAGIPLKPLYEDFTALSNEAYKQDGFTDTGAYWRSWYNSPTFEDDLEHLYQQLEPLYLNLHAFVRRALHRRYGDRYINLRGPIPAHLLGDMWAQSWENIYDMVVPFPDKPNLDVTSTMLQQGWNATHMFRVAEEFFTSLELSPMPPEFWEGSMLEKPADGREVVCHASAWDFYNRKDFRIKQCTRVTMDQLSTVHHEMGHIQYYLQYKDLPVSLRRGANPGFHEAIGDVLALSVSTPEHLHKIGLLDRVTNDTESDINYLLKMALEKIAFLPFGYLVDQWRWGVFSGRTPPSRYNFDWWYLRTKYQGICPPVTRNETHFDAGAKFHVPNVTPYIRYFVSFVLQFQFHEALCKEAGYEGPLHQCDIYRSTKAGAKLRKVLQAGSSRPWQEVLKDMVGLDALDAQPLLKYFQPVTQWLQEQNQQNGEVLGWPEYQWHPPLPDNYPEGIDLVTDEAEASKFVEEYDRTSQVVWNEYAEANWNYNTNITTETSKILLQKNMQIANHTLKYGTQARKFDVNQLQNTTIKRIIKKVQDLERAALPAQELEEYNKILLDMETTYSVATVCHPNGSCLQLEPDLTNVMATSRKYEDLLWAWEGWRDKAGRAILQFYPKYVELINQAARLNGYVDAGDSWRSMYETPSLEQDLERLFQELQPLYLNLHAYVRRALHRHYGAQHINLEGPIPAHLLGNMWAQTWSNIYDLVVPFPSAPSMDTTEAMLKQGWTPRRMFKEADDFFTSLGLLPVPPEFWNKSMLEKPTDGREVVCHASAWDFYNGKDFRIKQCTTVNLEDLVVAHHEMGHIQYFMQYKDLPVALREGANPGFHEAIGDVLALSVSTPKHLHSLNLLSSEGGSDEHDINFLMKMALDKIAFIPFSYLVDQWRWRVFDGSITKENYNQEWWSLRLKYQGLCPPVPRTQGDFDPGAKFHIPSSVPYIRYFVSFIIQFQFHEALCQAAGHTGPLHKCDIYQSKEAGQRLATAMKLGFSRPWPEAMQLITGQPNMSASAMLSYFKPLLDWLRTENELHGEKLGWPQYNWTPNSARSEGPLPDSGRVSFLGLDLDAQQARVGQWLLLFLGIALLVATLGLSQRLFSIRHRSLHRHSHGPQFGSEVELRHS

[6] = target: T1, Endothelin-converting enzyme 1 (Homo sapiens, UniProt P42892); assay: Inhibition of ECE-1 in human NCO cells using Mca-Arg-Pro-Pro-GlyPhe-Ser-Ala-DpaOH as substrate after 45 mins by fluorescence assay; format: cell-based
T1 sequence (P42892 whole entry): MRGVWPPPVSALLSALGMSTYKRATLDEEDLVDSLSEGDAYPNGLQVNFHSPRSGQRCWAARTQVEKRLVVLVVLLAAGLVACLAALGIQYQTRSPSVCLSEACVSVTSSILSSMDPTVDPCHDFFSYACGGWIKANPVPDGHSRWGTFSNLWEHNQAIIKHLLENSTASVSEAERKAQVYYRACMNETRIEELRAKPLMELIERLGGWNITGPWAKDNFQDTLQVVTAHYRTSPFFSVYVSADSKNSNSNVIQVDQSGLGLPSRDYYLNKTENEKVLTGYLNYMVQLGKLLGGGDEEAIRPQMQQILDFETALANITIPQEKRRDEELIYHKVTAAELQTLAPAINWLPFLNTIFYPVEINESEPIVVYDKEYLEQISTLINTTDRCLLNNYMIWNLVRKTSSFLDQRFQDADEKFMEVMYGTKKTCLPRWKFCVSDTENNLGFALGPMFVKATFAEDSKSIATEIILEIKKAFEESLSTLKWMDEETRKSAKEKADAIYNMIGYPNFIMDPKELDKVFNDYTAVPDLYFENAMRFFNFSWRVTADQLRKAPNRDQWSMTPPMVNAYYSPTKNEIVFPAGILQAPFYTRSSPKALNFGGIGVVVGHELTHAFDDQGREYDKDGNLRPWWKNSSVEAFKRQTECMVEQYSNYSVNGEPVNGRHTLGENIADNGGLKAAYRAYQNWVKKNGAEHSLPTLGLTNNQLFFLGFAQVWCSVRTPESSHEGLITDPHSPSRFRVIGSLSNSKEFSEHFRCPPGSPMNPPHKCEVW

With COC(=O)[C@H](CC(=O)N[C@@H](CO)C(=O)O)CC(C)C as the compound, how does the half-life at 10 µM [1] read?
Its half-life at 10 µM is 0.1 h.

And the solubility at 24 h [2]?
The solubility at 24 h was 160 µM (≈ 44 µg/mL).

And the IC50 (Neprilysin)?
Its IC50 is 79.4 µM.

For COC(=O)[C@@H](CC(=O)N[C@@H](CO)C(=O)O)CC(C)C, which IC50 (Neprilysin) is on record?
Its IC50 is > 1000 µM.

With COC(=O)[C@H](CC(=O)N[C@H](CO)C(=O)O)CC(C)C as the compound, how does the IC50 (Neprilysin) read?
Its IC50 is > 1000 µM.

With COC(=O)[C@@H](CC(=O)N[C@H](CO)C(=O)O)CC(C)C as the compound, how does the IC50 (Neprilysin) read?
The IC50 was > 1000 µM.

For CC(C)C[C@H]1CC(=O)N([C@@H](CO)C(=O)O)C1=O, which Stability [3] is on record?
The Stability was “Unstable”.

And the IC50 (Neprilysin)?
The IC50 was 2.51 µM.

For COC(=O)[C@H](CC(C)C)NC(=O)N[C@@H](CO)C(=O)O, which IC50 (Neprilysin) is on record?
The IC50 was > 1000 µM.

For CC(C)C[C@@H](CC(=O)N[C@@H](CO)C(=O)O)C(=O)O, which logD at 2 h [4] is on record?
Its logD at 2 h is -3.4.

What about the IC50 [5] of the same compound?
The IC50 was > 31.6 µM.

And the IC50 [6]?
The IC50 was > 31.6 µM.

What about the half-life at 10 µM [1] of the same compound?
Its half-life at 10 µM is > 24 h.

What about the solubility at 24 h [2] of the same compound?
The solubility at 24 h was > 200 µM.

What about the IC50 (Neprilysin) of the same compound?
Its IC50 is 0.794 µM.

Which results are given for CC(C)C[C@H](CC(=O)N[C@@H](CO)C(=O)O)C(=O)O?
logD at 2 h [4]: -3.8; IC50 [5]: > 31.6 µM; IC50 [6]: > 31.6 µM; half-life at 10 µM [1]: > 24 h; solubility at 24 h [2]: > 200 µM; IC50 (Neprilysin): > 1000 µM

For CC(C)C[C@@H](CC(=O)O)C(=O)N[C@@H](CO)C(=O)O, which Stability [3] is on record?
The Stability was “Stable”.

What about the logD at 2 h [4] of the same compound?
The logD at 2 h was -3.7.

What about the IC50 [5] of the same compound?
The IC50 was > 31.6 µM.

What about the IC50 [6] of the same compound?
The IC50 was > 31.6 µM.

And the half-life at 10 µM [1]?
The half-life at 10 µM was > 24 h.

What about the solubility at 24 h [2] of the same compound?
Its solubility at 24 h is > 200 µM.

What about the IC50 (Neprilysin) of the same compound?
The IC50 was 0.0631 µM.

For CC(C)C[C@H](CC(=O)O)C(=O)N[C@@H](CO)C(=O)O, which logD at 2 h [4] is on record?
The logD at 2 h was -3.8.

And the IC50 [5]?
The IC50 was > 31.6 µM.

And the IC50 [6]?
The IC50 was > 31.6 µM.

What about the half-life at 10 µM [1] of the same compound?
Its half-life at 10 µM is > 24 h.

What about the solubility at 24 h [2] of the same compound?
Its solubility at 24 h is > 200 µM.

What about the IC50 (Neprilysin) of the same compound?
The IC50 was 6.31 µM.

Which IC50 (Neprilysin) does the source give for COC(=O)C(CC(C)C)C(=O)N[C@@H](CO)C(=O)O (mixture of isomers) here?
The IC50 was 50.1 µM.

Which IC50 (Neprilysin) does the source give for COC(=O)C(CC(C)C)C(=O)N[C@H](CO)C(=O)O (mixture of isomers) here?
Its IC50 is > 1000 µM.

Which IC50 (Neprilysin) does the source give for COC(=O)[C@H](CC(C)C)NC(=O)N[C@H](CO)C(=O)O (single isomer, unassigned) here?
Its IC50 is > 1000 µM.
